{"source": "patent US12070472B2", "about": "“Treatment of drug resistant proliferative diseases with telomerase mediated telomere altering compounds” (The Board of Regents of the University of Texas System, priority 2016, dated 2024)", "key": {"H1819": {"system": "H1819", "assay": "NSCLC panel sensitivity to 6-thio-dG, H1819", "format": "cell-based, human", "experimental": "A panel of NSCLC cell lines was tested for sensitivity to 6-thio-dG by performing a cell count after 1 week treatment. Briefly, cells were treated with 3 μM 6-thio-dG every three days for 1 week. Viable cells were counted at the end of treatment. Each 6-thiodG treated cell line was normalized to its DMSO treated control.\nTwo isogenic pairs of NSCLC cell lines were studied for sensitization to 6-thio-dG treatment."}, "HCC2429": {"system": "HCC2429", "assay": "GI 50 determination, HCC2429", "format": "cell-based", "details": "Homo sapiens", "experimental": "(§1) Cells of each type listed in Table 2 were seeded in chamber slides."}, "HCT116 cells": {"system": "HCT116 cells", "assay": "Tumor growth in xenograft animal model with HCT116 cells", "format": "in vivo, mice", "details": "2 mg/kg IP every two days, 6 injections", "experimental": "Doses of 2 mg/kg of 6-thio-dG and 2 mg/kg of 6-thio-G were IP injected every two days for a total of 6 injections into mice. DMSO injections were used for the control. The volume of the tumor was measured."}, "Toxicity testing in rats": {"assay": "Toxicity testing in rats", "details": "for mortality: rats", "experimental": "Six rats were treated with 15 mg of 6-thio-dG/kg of body weight every two days. […] Another 5 rats were treated with 50 mg of 6-thio-dG/kg of body weight every other day."}, "H2882": {"system": "H2882", "assay": "GI 50 determination, H2882", "format": "cell-based", "details": "Homo sapiens, NCI-H2882", "experimental": "as §1"}}, "data": [{"smiles": "Nc1nc2c(ncn2[C@H]2C[C@H](O)[C@@H](CO)O2)c(=S)[nH]1", "note": "[6-thio-dG, 6-thio-2′-deoxyguanosine]", "values": [{"measurement": "survival rate", "setting": "H1819; H1819, 3 μM every three days for 1 week, normalized to DMSO control", "result": "greater than 50%"}, {"measurement": "IC50", "setting": "H1819; Homo sapiens, NCI-H1819", "result": "> 100000", "unit": "nM"}, {"measurement": "GI50", "setting": "HCC2429", "result": 600, "unit": "nM"}, {"measurement": "rate of tumor growth (tumor volume)", "setting": "HCT116 cells", "result": "rate of tumor growth was less"}, {"measurement": "signs of impaired function in surviving animals", "setting": "Toxicity testing in rats; rat, in vivo, 15 mg/kg", "result": "no signs of impaired function"}, {"measurement": "mortality", "setting": "Toxicity testing in rats; 15 mg/kg every two days, six rats", "result": "One rat died after 6 injections"}, {"measurement": "mortality", "setting": "Toxicity testing in rats; 50 mg/kg every other day, 5 rats", "result": "All rats died after 12 days"}, {"measurement": "GI50", "setting": "H2882", "result": 400, "unit": "nM"}]}]}
